Assay results published in patent US20260274856A1, “COVALENT CEREBLON LIGANDS” (C4 THERAPEUTICS, INC., priority 2023, published 2026).
Like-named read-outs stand apart in the source and are kept apart here.

Columns and labels:
[1] = tested on: A375—NRASQ^61K cells (cell line A375.11); assay: CTGlo (CellTiter-Glo 2.0) Cell Viability Assay; assay type: cell-based
Protocol: Compounds of the present invention were tested for their effect on the viability of A375—NRASQ^61K cells by quantification of ATP using the CellTiter-Glo® 2.0 Cell Viability Assay (Catalog No. G9243, Promega, Madison, WI, USA). This assay produces a luminescent signal in the presence of ATP, which is indicative of metabolically active cells, making the luminescence readout proportional to the number of viable cells. A375—NRASQ^61K cells, also referred to here as cell line A375.11, (harboring BRAF homozygous V600E mutation and NRAS homozygous Q61K mutation) were purchased from ATCC (Catalog No. CRL-1619IG-2, Manassas, VA, USA).
Cells were also plated to a 384-well plate with no compound treatment, to which CellTiter-Glo® reagent was added and luminescence was read right after plating to act as a baseline signal at time of plating (To).
DMSO treated cells with no CellTiter-Glo® reagent added were used as the background or positive control (P). Viability was determined by subtracting out the average background signal (P) and normalized to the average untreated signal (N) set at 100%.

GSPT1 = GSPT1 (Homo sapiens, UniProt P15170+Q96SW2); assay: GSPT1 HiBiT Degradation Assay in 293T.114 cells
GSPT1, sequence (Q96SW2 whole entry): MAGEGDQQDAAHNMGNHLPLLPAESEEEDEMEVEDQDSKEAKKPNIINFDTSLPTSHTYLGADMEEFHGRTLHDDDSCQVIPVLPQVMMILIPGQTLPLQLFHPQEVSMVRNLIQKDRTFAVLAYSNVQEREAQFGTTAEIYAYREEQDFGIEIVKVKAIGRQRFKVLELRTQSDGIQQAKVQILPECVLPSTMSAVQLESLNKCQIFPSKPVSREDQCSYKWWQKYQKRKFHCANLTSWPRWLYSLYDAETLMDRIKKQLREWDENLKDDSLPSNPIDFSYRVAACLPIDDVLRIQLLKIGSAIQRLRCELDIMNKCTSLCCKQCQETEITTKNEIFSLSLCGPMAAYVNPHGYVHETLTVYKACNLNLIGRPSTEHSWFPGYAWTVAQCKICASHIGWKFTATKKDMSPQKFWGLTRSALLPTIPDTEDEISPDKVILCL
GSPT1, sequence (Q16531 2-1140, further chain): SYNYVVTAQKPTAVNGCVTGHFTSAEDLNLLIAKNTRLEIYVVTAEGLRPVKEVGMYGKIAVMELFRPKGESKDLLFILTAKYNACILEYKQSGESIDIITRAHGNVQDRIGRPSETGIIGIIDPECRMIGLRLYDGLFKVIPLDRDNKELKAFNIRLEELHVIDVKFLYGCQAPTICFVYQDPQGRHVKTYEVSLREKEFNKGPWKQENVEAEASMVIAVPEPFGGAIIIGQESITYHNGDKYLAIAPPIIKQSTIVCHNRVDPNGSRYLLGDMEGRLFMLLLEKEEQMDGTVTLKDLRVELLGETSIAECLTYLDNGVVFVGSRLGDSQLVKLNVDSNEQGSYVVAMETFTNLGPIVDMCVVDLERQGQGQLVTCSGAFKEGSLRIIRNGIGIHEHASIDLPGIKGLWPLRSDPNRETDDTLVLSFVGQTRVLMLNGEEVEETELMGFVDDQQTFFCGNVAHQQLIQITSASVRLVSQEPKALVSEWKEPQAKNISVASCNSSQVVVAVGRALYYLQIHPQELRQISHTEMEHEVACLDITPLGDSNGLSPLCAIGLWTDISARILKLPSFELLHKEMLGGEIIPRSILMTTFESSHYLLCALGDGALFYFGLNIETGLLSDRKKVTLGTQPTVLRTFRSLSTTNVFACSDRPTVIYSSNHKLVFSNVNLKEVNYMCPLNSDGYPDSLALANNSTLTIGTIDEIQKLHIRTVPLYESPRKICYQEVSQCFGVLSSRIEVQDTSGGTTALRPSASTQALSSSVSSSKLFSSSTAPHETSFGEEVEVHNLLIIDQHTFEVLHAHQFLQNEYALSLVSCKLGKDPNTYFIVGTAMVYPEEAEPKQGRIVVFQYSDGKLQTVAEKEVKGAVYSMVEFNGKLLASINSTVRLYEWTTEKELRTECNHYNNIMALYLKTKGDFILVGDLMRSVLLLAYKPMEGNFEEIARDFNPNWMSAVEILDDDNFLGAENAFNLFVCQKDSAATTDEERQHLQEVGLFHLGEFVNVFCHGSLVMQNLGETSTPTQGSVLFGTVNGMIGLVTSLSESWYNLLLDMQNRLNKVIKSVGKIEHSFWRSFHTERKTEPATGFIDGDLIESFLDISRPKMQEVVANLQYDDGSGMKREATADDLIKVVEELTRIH
GSPT1, sequence (P15170 whole entry): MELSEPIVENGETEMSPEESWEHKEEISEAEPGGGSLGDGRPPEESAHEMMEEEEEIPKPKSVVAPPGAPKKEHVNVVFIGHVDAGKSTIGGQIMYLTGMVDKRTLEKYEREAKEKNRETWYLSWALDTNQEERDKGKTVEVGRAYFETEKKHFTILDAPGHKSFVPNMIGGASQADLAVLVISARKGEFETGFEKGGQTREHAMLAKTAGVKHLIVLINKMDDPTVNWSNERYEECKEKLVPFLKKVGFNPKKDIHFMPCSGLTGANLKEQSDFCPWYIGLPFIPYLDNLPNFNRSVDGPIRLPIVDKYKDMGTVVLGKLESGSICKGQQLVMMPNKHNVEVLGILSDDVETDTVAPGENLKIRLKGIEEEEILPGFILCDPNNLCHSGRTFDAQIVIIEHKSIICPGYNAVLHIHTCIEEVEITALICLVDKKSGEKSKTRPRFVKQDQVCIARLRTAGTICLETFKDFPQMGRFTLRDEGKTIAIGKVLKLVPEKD
Protocol: Upon cell lysis and addition of the complementing LgBiT polypeptide and its substrate, the HiBiT polypeptide on GSPT1 allows reconstitution of an enzyme that activates its substrate to produce a luminescent signal that is directly proportional to the amount of HiBiT-tagged GSPT1. […] Cell culture flasks and 384-well microplates were acquired from VWR (Radnor, PA, USA).
Cellular GSPT1 protein level was determined based on quantification of luminescent signal using the Nano-Glo® HiBiT Lytic Assay kit (Promega). Following the 24 hr treatment time, Nano-Glo® HiBiT Lytic Assay reagents were added to the cells per the manufacturer's instructions by adding 30 µl of reagent per well, and the luminescence signal was acquired on the PHERAstar plate reader (BMG Labtech, Ortenberg, Germany). Cells treated with DMS0 only (no test compound treatment) were used as the negative control (N). Media only (no cells added) withNano-Glo reagent additionwasused as the background orpositive control (P). The percent response of compound treated samples were calculated by subtracting out the 5 background signal (P) and normalizing to the DMS0 control (N) as follows. 0% Response=100 x (Treated Signal - Average (P))/(Average (N) - Average (P)).
Data were analyzed with a 4-parameter logistic fit to generate sigmoidal dose-response curves. DC50 values were computed as the concentrations where the fitted curves cross the 5000 response level.

mutant BRAF V600E = mutant BRAF V600E (Homo sapiens, UniProt P15056, V600E); assay: BRAF V600E HiBiT Degradation Assay in A375.10 cells
mutant BRAF V600E, sequence (P15056 whole entry V600E): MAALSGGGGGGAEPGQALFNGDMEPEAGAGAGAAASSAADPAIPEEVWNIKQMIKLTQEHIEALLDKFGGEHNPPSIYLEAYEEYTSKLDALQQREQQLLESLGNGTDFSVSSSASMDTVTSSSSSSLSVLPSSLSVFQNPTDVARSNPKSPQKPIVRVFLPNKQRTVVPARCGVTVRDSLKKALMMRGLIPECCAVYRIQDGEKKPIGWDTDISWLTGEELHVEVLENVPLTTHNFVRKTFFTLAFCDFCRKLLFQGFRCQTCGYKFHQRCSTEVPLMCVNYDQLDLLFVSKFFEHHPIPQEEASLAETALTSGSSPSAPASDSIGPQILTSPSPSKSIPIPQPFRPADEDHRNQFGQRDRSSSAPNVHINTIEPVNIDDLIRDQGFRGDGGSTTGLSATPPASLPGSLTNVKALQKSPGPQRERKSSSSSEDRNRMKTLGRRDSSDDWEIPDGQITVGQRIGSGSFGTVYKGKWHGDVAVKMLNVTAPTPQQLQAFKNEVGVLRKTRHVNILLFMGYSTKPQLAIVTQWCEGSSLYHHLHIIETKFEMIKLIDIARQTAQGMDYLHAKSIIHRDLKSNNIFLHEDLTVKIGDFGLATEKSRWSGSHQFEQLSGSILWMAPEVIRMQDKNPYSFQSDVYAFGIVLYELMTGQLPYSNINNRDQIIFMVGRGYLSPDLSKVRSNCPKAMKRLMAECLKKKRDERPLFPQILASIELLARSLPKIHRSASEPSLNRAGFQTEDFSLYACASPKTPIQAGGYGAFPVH
Protocol: Compounds of this invention were tested for degradation of mutant BRAF V600E using the HiBiT assay, a luminescence-based assay for quantification of cellular protein levels using the Nano-Glo@HiBiT Lytic Detection System (Catalog No. N3050, Promega, Madison, WI USA). This assay utilizes the HiBiT tag on a protein of interest, which creates a luminescent signal in the presence of a complementing peptide and its substrate, the quantification of which 10 is proportional to the amount of HiBiT-tagged protein in the cell.
A375 cells were engineered to express HiBiT tagged BRAF V600E by CRISPR knock-in of the HiBiT tag to the endogenous BRAF V600E locus, followed by selection of a clonal population containing 15 the appropriate knock-in (referred to here as cell line A375.10). […] Cell culture flasks and 384-well microplates 20 were acquired from VWR (Radnor, PA, USA).
Plates were then spun briefly, and cells were incubated with compound at 37° C. for 2 hoursor 24 hours.
Following the appropriate treatment time, Nano-Glo® HiBiT Lytic Assay reagents were added to the cells per the manufacturer's instructions by adding 30ul of reagent per well, and 10 the luminescence signal was acquired by plate reader. Cells treated with DMSO only (no test compound treatment) were used as the negative control (N). Media only (no cells added) with Nano-Glo reagent addition was used as the background or positive control (P). The percent response of compound treated samples were calculated by subtracting out the background signal (P) and normalizing to the DMSO control (N) as follows. % Response=100 x (Treated Signal - Average (P))/(Average (N) - Average (P)).
Data were analyzed with a 4-parameter logistic fit to generate sigmoidal dose-response curves. […] The Emax, or maximum effect of each compound, represents the amount of residual protein remaining in the cell following compound treatment.
The experiment was conducted at least once for each compound. If the experiment was conducted multiple times, the data shown in the table is the average of the two or more experiments.

[2] = 96 h, IP, read-out: CTGlo A375.11 96 hours IP
[3] = 96 hours, lowest % viability achieved
[4] = half-maximal inhibition of cell growth, table title: A375.11 96 hours, read-out: CTGlo A375.11 96 hours GI50
[5] = 96 hours, IP, read-out: CTGlo A375.11 96 hours IP
[6] = 2 hours, A375.10 cells, inflection point of the dose-response curve
[7] = read-out: HIBIT-Degradation A375.10 BRAF 2 hours DC50 nM, 2 hours, A375.10 cells
[8] = read-out: HiBIT-Degradation A375.10 BRAF 2 hours Emax

Row | SMILES | GI50 [1, 2] | Emax [1, 3] | GI50 [1, 4] | further results
1 | CCN(C)S(=O)(=O)Nc1ccc(F)c(Oc2ccc3ncn([C@@H]4COC5(CCN(C(=O)CN6CCN(c7ccc(N8CCC(=O)NC8=O)cc7OS(=O)(=O)F)CC6)CC5)C4)c(=O)c3c2)c1C#N [drawing 1185] | > 10 µM | 60 to 95% | > 10 µM | 
2 | CCN(C)S(=O)(=O)Nc1ccc(F)c(Oc2ccc3ncn([C@H]4COC5(CCN(C(=O)CN6CCN(c7ccc(C8CCC(=O)NC8=O)cc7OS(=O)(=O)F)CC6)CC5)C4)c(=O)c3c2)c1C#N (stereo partly drawn) [drawing 1183] |  |  | > 10 µM | CTGlo A375.11 96 hours IP nM ([1]; 96 hours, IP): ** (<10 μM and >1 μM is **); CTGlo A375.11 96 hours Emax [1, 3]: ** (<95% and >60% is **)
3 | CCN(C)S(=O)(=O)Nc1ccc(F)c(Oc2ccc3ncn([C@H]4COC5(CCN(C(=O)CN6CCN(c7ccc(C8CCC(=O)NC8=O)cc7OS(=O)(=O)F)CC6)CC5)C4)c(=O)c3c2)c1C#N (stereo partly drawn) [drawing 1232] |  |  |  | HIBIT-Degradation 293T.114 GSPT1 24 hours IP nM (GSPT1; 24 hours, 293T.114 cells, inflection point of the dose-response curve): ** (<10 μM and >1 μM is **); DC50 (GSPT1; read-out: HIBIT-Degradation 293T.114 GSPT1 24 hours DC50 nM, 24 hours, 293T.114 cells): > 10000 nM; Emax (GSPT1; read-out: HIBIT-Degradation 293T.114 GSPT1 24 hours Emax): 60 to 95%
4 | CCN(C)S(=O)(=O)Nc1ccc(F)c(Oc2ccc3ncn([C@@H]4COC5(CCN(C(=O)CN6CCC(c7ccc(NC8CCC(=O)NC8=O)cc7S(=O)(=O)F)CC6)CC5)C4)c(=O)c3c2)c1C#N (stereo partly drawn) [drawing 1177] | > 10 µM | 60 to 95% | > 10 µM | 
5 | CCN(C)S(=O)(=O)Nc1ccc(F)c(Oc2ccc3ncn([C@H]4COC5(CCN(C(=O)CN6CCC(c7ccc(NC8CCC(=O)NC8=O)cc7OS(C)(=O)=O)CC6)CC5)C4)c(=O)c3c2)c1C#N (stereo partly drawn) [drawing 1176] |  | < 60% | > 10 µM | GI50 [1, 5]: 1 to 10 µM
6 | CCN(C)S(=O)(=O)Nc1ccc(F)c(Oc2ccc3ncn([C@H]4COC5(CCN(C(=O)CN6CCC(c7ccc(NC8CCC(=O)NC8=O)cc7S(=O)(=O)F)CC6)CC5)C4)c(=O)c3c2)c1C#N (stereo partly drawn) [drawing 1178] | > 10 µM | 60 to 95% | > 10 µM | 
7 | CCN(C)S(=O)(=O)Nc1ccc(F)c(Oc2ccc3ncn([C@H]4COC5(CCN(C(=O)CN6CCN(c7ccc(C8CCC(=O)NC8=O)cc7OS(=O)(=O)F)CC6)CC5)C4)c(=O)c3c2)c1C#N (stereo partly drawn) [drawing 1170] | < 1 µM | 60 to 95% | > 10 µM | 
8 | CCN(C)S(=O)(=O)Nc1ccc(F)c(Oc2ccc3ncn([C@@H]4COC5(CCN(C(=O)CN6CCC(c7ccc(N8CCC(=O)NC8=O)cc7OS(=O)(=O)F)CC6)CC5)C4)c(=O)c3c2)c1C#N [drawing 1171] | > 10 µM | 60 to 95% | > 10 µM | 
9 | CCN(C)S(=O)(=O)Nc1ccc(F)c(Oc2ccc3ncn([C@H]4COC5(CCN(C(=O)CN6CCC(c7ccc(OC8CCC(=O)NC8=O)cc7OS(C)(=O)=O)CC6)CC5)C4)c(=O)c3c2)c1C#N (stereo partly drawn) [drawing 1184] |  | 60 to 95% | > 10 µM | GI50 [1, 5]: > 10 µM
10 | CCN(C)S(=O)(=O)Nc1ccc(F)c(Oc2ccc3ncn([C@@H]4COC5(CCN(C(=O)CN6CCC(c7ccc(OC8CCC(=O)NC8=O)cc7OS(=O)(=O)F)CC6)CC5)C4)c(=O)c3c2)c1C#N (stereo partly drawn) [drawing 1186] | > 10 µM | 60 to 95% | > 10 µM | 
11 | CCN(C)S(=O)(=O)Nc1ccc(F)c(Oc2ccc3ncn([C@H]4COC5(CCN(C(=O)CN6CCN(c7ccc(N8CCC(=O)NC8=O)cc7OS(=O)(=O)F)CC6)CC5)C4)c(=O)c3c2)c1C#N [drawing 1172] | > 10 µM | 60 to 95% | > 10 µM | 
12 | CCN(C)S(=O)(=O)Nc1ccc(F)c(Oc2ccc3ncn([C@@H]4COC5(CCN(C(=O)CN6CCC(c7ccc(OC8CCC(=O)NC8=O)cc7S(=O)(=O)F)CC6)CC5)C4)c(=O)c3c2)c1C#N (stereo partly drawn) [drawing 1175] | > 10 µM | < 60% | > 10 µM | 
13 | CCN(C)S(=O)(=O)Nc1ccc(F)c(Oc2ccc3ncn([C@@H]4COC5(CCN(C(=O)CN6CCC(c7ccc(C8CCC(=O)NC8=O)cc7OS(C)(=O)=O)CC6)CC5)C4)c(=O)c3c2)c1C#N (stereo partly drawn) [drawing 1182] |  | 60 to 95% | > 10 µM | GI50 [1, 5]: > 10 µM
14 | CCN(C)S(=O)(=O)Nc1ccc(F)c(Oc2ccc3ncn([C@H]4COC5(CCN(C(=O)CN6CCC(c7ccc(OC8CCC(=O)NC8=O)cc7S(=O)(=O)F)CC6)CC5)C4)c(=O)c3c2)c1C#N (stereo partly drawn) [drawing 1181] | > 10 µM | 60 to 95% | > 10 µM | 
15 | CCN(C)S(=O)(=O)Nc1ccc(F)c(Oc2ccc3ncn([C@@H]4COC5(CCN(C(=O)CN6CCC(c7ccc(OC8CCC(=O)NC8=O)cc7OS(C)(=O)=O)CC6)CC5)C4)c(=O)c3c2)c1C#N (stereo partly drawn) [drawing 1187] |  | 60 to 95% | > 10 µM | GI50 [1, 5]: > 10 µM
16 | CCN(C)S(=O)(=O)Nc1ccc(F)c(Oc2ccc3ncn([C@@H]4COC5(CCN(C(=O)CN6CCC(c7ccc(N8CCC(=O)NC8=O)cc7OS(C)(=O)=O)CC6)CC5)C4)c(=O)c3c2)c1C#N [drawing 1173] |  | 60 to 95% | > 10 µM | GI50 [1, 5]: 1 to 10 µM
17 | CCN(C)S(=O)(=O)Nc1ccc(F)c(Oc2ccc3ncn([C@H]4COC5(CCN(C(=O)CN6CCC(c7ccc(N8CCC(=O)NC8=O)cc7OS(C)(=O)=O)CC6)CC5)C4)c(=O)c3c2)c1C#N [drawing 1174] |  | < 60% | 1 to 10 µM | GI50 [1, 5]: 1 to 10 µM
18 | CCN(C)S(=O)(=O)Nc1ccc(F)c(Oc2ccc3ncn([C@H]4COC5(CCN(C(=O)CN6CCC(c7ccc(OC8CCC(=O)NC8=O)cc7OS(=O)(=O)F)CC6)CC5)C4)c(=O)c3c2)c1C#N (stereo partly drawn) [drawing 1179] | 1 to 10 µM | 60 to 95% | > 10 µM | 
19 | CCN(C)S(=O)(=O)Nc1ccc(F)c(Oc2ccc3ncn([C@H]4COC5(CCN(C(=O)CN6CCC(c7ccc(C8CCC(=O)NC8=O)cc7OS(=O)(=O)F)CC6)CC5)C4)c(=O)c3c2)c1C#N (stereo partly drawn) [drawing 1169] | 1 to 10 µM | < 60% | > 10 µM | 
20 | CCN(C)S(=O)(=O)Nc1ccc(F)c(Oc2ccc3ncn([C@@H]4COC5(CCN(C(=O)CN6CCC(c7ccc(C8CCC(=O)NC8=O)cc7OS(=O)(=O)F)CC6)CC5)C4)c(=O)c3c2)c1C#N (stereo partly drawn) [drawing 1168] | 1 to 10 µM | 60 to 95% | > 10 µM | 
21 | CCN(C)S(=O)(=O)Nc1ccc(F)c(Oc2ccc3ncn([C@H]4COC5(CCN(C(=O)CN6CCC(c7ccc(OC8CCC(=O)NC8=O)cc7OS(=O)(=O)F)CC6)CC5)C4)c(=O)c3c2)c1C#N (stereo partly drawn) [drawing 1196] |  |  |  | HiBIT-Degradation A375.10 BRAF 2 hours IP nM (mutant BRAF V600E; [6]): *** (<= 1 μM is); DC50 (mutant BRAF V600E; [7]): 1000 to 10000 nM; Emax (mutant BRAF V600E; [8]): < 60%
22 | CCN(C)S(=O)(=O)Nc1ccc(F)c(Oc2ccc3ncn([C@@H]4COC5(CCN(C(=O)CN6CCC(c7ccc(N8CCC(=O)NC8=O)cc7OS(C)(=O)=O)CC6)CC5)C4)c(=O)c3c2)c1C#N [drawing 1219] |  |  |  | HiBIT-Degradation A375.10 BRAF 24 hours IP nM (mutant BRAF V600E; 24 hours, A375.10 cells, inflection point of the dose-response curve): *** (<= 1 μM is ***); DC50 (mutant BRAF V600E; read-out: HiBIT-Degradation A375.10 BRAF 24 hours DC50 nM, 24 hours, A375.10 cells): < 1000 nM; Emax (mutant BRAF V600E; read-out: HiBIT-Degradation A375.10 BRAF 24 hours Emax): < 60%
23 | CCN(C)S(=O)(=O)Nc1ccc(F)c(Oc2ccc3ncn([C@@H]4COC5(CCN(C(=O)CN6CCC(c7ccc(OC8CCC(=O)NC8=O)cc7OS(=O)(=O)F)CC6)CC5)C4)c(=O)c3c2)c1C#N (stereo partly drawn) [drawing 1201] |  |  |  | HiBIT-Degradation A375.10 BRAF 2 hours IP nM (mutant BRAF V600E; [6]): *** (<= 1 μM is); DC50 (mutant BRAF V600E; [7]): 1000 to 10000 nM; Emax (mutant BRAF V600E; [8]): 60 to 95%
24 | CCN(C)S(=O)(=O)Nc1ccc(F)c(Oc2ccc3ncn([C@H]4COC5(CCN(C(=O)CN6CCC(c7ccc(N8CCC(=O)NC8=O)cc7OS(=O)(=O)F)CC6)CC5)C4)c(=O)c3c2)c1C#N [drawing 1180] | 1 to 10 µM | 60 to 95% | > 10 µM | 
25 | CCN(C)S(=O)(=O)Nc1ccc(F)c(Oc2ccc3ncn([C@@H]4COC5(CCN(C(=O)CN6CCC(c7ccc(NC8CCC(=O)NC8=O)cc7OS(C)(=O)=O)CC6)CC5)C4)c(=O)c3c2)c1C#N (stereo partly drawn) [drawing 1188] |  | > 95% | > 10 µM | GI50 [1, 5]: > 10 µM
